Measured values as given in ChEMBL document CHEMBL4304828, “PROTAC-Mediated Degradation of Estrogen Receptor in the Treatment of Cancer” (ACS Med Chem Lett, 2019).

What was measured:
Estrogen receptor = molecular target: T1, Estrogen receptor (Homo sapiens, UniProt P03372); test: Displacement of fluorescent ligand from human recombinant GST-tagged ER-alpha ligand binding domain (307 to 554 residues) incubated for 15 mins by TR-FRET based competitive assay
T1 sequence (P03372 whole entry): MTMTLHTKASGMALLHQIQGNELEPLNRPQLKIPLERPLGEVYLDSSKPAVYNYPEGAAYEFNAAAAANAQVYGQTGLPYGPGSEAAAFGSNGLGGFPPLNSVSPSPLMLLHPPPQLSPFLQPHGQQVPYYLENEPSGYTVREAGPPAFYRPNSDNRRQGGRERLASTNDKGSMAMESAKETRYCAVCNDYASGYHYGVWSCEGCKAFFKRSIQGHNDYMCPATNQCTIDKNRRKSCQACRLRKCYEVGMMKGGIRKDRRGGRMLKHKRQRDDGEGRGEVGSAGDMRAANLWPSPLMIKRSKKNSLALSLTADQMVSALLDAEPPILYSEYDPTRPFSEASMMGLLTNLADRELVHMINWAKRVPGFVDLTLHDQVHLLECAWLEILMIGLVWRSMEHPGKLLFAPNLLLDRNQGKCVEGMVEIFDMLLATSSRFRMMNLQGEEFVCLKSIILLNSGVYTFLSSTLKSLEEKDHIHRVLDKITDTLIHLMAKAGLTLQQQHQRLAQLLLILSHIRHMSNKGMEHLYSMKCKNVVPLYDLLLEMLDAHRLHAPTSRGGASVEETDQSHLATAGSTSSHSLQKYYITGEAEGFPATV

[1] = molecular target: T2, von Hippel-Lindau disease tumor suppressor/Estrogen receptor (Homo sapiens, UniProt P03372+P40337); test: Induction of VHL E3 ligase mediated ERalpha degradation in human MCF7 cells assessed as downregulation of ERalpha expression by cell-based immunofluorescence assay
Target sequence in this assay (P40337 whole entry, one chain of several): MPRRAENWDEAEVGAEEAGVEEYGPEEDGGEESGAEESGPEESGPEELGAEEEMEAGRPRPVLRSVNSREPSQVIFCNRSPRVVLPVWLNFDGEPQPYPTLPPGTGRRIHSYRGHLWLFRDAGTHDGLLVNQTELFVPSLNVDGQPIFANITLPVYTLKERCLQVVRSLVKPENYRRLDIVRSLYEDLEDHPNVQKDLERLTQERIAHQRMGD

[2] = molecular target: T2, von Hippel-Lindau disease tumor suppressor/Estrogen receptor; test: Induction of VHL E3 ligase mediated ERalpha degradation in human MCF7 cells at 0.3 uM by cell-based immunofluorescence assay
Target sequence in this assay (P40337 whole entry, looked up, one chain of several): as the sequence (P40337 whole entry, one chain of several) above

SMILES | IC50 (Estrogen receptor) [nM] | IC50 [1] [nM] | Activity [2] [%]
Cc1ncsc1-c1ccc([C@H](C)NC(=O)[C@@H]2C[C@@H](O)CN2C(=O)[C@@H](NC(=O)COCCOCCCCCOc2cc(F)c([C@@H]3c4[nH]c5ccccc5c4C[C@@H](C)N3CC(C)(C)F)c(F)c2)C(C)(C)C)cc1 | 0.5 | 0.6 | > 90
Cc1ncsc1-c1ccc(CNC(=O)[C@@H]2C[C@@H](O)CN2C(=O)[C@@H](NC(=O)COCCCOCCCOc2cc(F)c([C@@H]3c4[nH]c5ccccc5c4C[C@@H](C)N3CC(C)(C)F)c(F)c2)C(C)(C)C)cc1 | – | 0.3 to 0.4 | > 90
C[C@]12CC[C@@H]3c4ccc(O)cc4C[C@@H](CCCCCCCCC[S+]([O-])CCCC(F)(F)C(F)(F)F)[C@H]3[C@@H]1CC[C@@H]2O (some centres not stated) | – | – | 100
Cc1ncsc1-c1ccc(CNC(=O)[C@@H]2C[C@@H](O)CN2C(=O)[C@@H](NC(=O)COCCOCCC(F)(F)CCOc2cc(F)c([C@@H]3c4[nH]c5ccccc5c4C[C@@H](C)N3CC(C)(C)F)c(F)c2)C(C)(C)C)cc1 | – | 0.8 | > 90
Cc1ncsc1-c1ccc([C@H](C)NC(=O)[C@@H]2C[C@@H](O)CN2C(=O)[C@@H](NC(=O)COCCOCCOCCOc2cc(F)c([C@@H]3c4[nH]c5ccccc5c4C[C@@H](C)N3CC(C)(C)F)c(F)c2)C(C)(C)C)cc1 | – | 0.3 | > 90
Cc1ncsc1-c1ccc(CNC(=O)[C@@H]2C[C@@H](O)CN2C(=O)[C@@H](NC(=O)COCCCOCCOc2cc(F)c([C@@H]3c4[nH]c5ccccc5c4C[C@@H](C)N3CC(C)(C)F)c(F)c2)C(C)(C)C)cc1 | – | 0.4 | > 90
